One series addresses T1, PI4KIIIalpha (Homo sapiens, UniProt P42356).
T1 construct: made in house; host or cells: COS-7 cells, transient transfection, anti-HA immunoprecipitate on protein G Sepharose beads
Kind of series: PI-kinase assay, PI4KIIIalpha (Table 4). The series is classed as biochemical. The procedure:
(§1) PI-kinase assay: Compounds are tested in C.1.1. PT kinase assays as described by Shokat et al., “A membrane capture assay for lipid kinase activity.” Nat. Protoc. 2007; 2(10):2459-66.
(§2) General methods of materials: In the assays described here, p110α-p85 complex and p110γ were acquired from Millipore. Assays were performed with La-phosphatidylinositol (Avanti) as described in Knight et al. Nat Protoc. 2007; 2 (10):2459-66. Inhibitor series were prepared 10% DMSO as 5× stocks for the assay. Assays of HsVps34 were performed as described in Knight et al, except that the final assay buffer composition used was changed to 20 mM HEPES 7.5, 100 mM NaCl, 3 mM MgCl, 1 mg/mL PI and 44 nM hvps34 was used in the assay. […] COS-7 cells were cultured in 10 cm dishes and transfected at 70% confluence with 10 μg of plasmid DNA (HA-tagged bovine PI4KIIIβ. HA-tagged human PI4KIIIα) using Lipofectamine 2000 and 5 ml Opti-MEM following the manufacturer's instructions. After 5 hours the transfection medium was replaced with 10 ml complete DMEM. 36 hrs post transfection, cells were washed once with 5 ml PBS (pH 7.4) and lysed in 1 ml of lysis buffer (1) on ice. Lysates were collected by scraping and after 15 min they were centrifuged at 13.000 rpm for 10 min. To the lysates was added 200 gi of protein G Sepharose 4 fast flow beads that were prewashed with PBS and lysis buffer and 2 sg of anti-HA antibody. The tubes were then incubated overnight at 4 degrees C. in a tube rotator. The Sepharose beads in the lysate were washed twice with 150 mM NaCl in RIPA buffer, twice with RIPA buffer and once with kinase buffer (50 mM Tris/HCl, pH 7.5, 20 mM MgCl2, 1 mM EFTA, 1 mM PtdIns, 0.4% Triton X-100, 0.5 mg/mL BSA) and finally the beads were resuspended in 200 μL kinase buffer. Kinase reactions were run in a mixture of 45 μL of PI buffer (1 mM P1 in kinase buffer), 10 μL of immunoprecipitated beads, 2 µL of inhibitors (dissolved and diluted in DMSO) or DMSO and 5 μL of [γ-^32P]-ATP (1 mM and 2 μCi/tube). The immunoprecipitates in PI buffer were pre-incubated with the drugs for 20 min prior the initiation of kinase reaction by adding ATP and the reactions were carried out for 30 min in 15 ml polyproplyene tubes. Reactions were terminated by addition of 3 ml of CHCl3:CH3OH:HCl (200:100:0.75) followed by 0.6 ml of 0.61N HCl to induce phase separation. The mixtures were vortexed, centrifuged at 2000 rpm for 2 min and the upper phase was discarded. To the lower phase was added 1.5 ml of CHCl3:CH3OH:0.6N HCl (3:48:47) and the mixture vortexed and centrifuged at 2000 rpm for 2 ruin. The lower phase was then transferred to counting vials and evaporated. Samples were counted in a scintillation beta counter after adding 5 ml of Instafluor (Perkin-Elmer).
(§3) Selected compounds of Tables 1-3 were prepared and tested for inhibition activity in a variety of kinase assays.

The subject of series [1] is BK virus (Polyomaviridae). As to the kind of experiment: BK virus antiviral assay (EC50). The series is classed as cell-based. The conditions noted are these: Betapolyomavirus hominis.
The nature of series [2]: Cell toxicity (CC50) in BK virus assay.
The target in a further series is T2, PI4KIIIbeta (Bos taurus, UniProt O02810).
T2 construct: made in house; host or cells: COS-7 cells, transient transfection, anti-HA immunoprecipitate on protein G Sepharose beads
As to the kind of experiment: PI-kinase assay, PI4KIIIbeta (Table 4). The series is classed as biochemical, bovine. The procedure: as §1, §2, §3

Another series deals with HRV. Kind of series: Rhinovirus antiviral assay (EC50). The conditions noted are these: Human rhinovirus sp. It is filed as cell-based.
A short description of series [3]: Caco-2 permeability assay. It is filed as in vitro ADME. Particulars: human, read-out: Caco2 Papp × 1e−6 cm/s. As to the method: Compounds of interest were tested in a variety of cell-based assays for antiviral activity.
The nature of series [4]: Cell toxicity (CC50) in EV71 assay. Particulars: EV71 CC50.
In a further series the test system is cells (EV71 assay). Kind of series: Cell toxicity (CC50) in EV71 assay.
The nature of series [5]: Microsomal stability, mouse liver microsomes. The series is classed as in vitro ADME.
A short description of series [6]: Microsomal stability, human liver microsomes. The series is classed as in vitro ADME. The conditions noted are these: for half-life: read-out: HLM/MLM (t ½ min): HLM.
The nature of series [7]: Cell toxicity (CC50) in HRV assay. The conditions noted are these: human, HRV CC50.
The test system of a further series is HeLa S3 cells. Kind of series: Cell toxicity (CC50) in HRV assay. Particulars: human.
A further series relates to HCV. Kind of series: Anti-HCV assay (EC50). The series is classed as cell-based. The conditions noted are these: Hepatitis C virus, read-out: HCV EC50. As to the method:
Anti-HCV assay: Anti-HCV assays are performed as described by Cho et al. “Identification of a class of HCV inhibitors directed against the nonstructural protein NS4B.” Sci. Transl. Med. 2011; 2(15):15ra6.

A further series concerns EV71. As to the kind of experiment: EV71 antiviral assay (EC50). It is filed as cell-based, Enterovirus 71.
The test system of the next series is EV68. As to the kind of experiment: EV68 antiviral assay (EC50). It is filed as cell-based.
The next series concerns cells (EV68 assay). As to the kind of experiment: Cell toxicity (CC50) in EV68 assay.
A short description of series [8]: Cell toxicity (CC50) in EV68 assay. Particulars: EV68 CC50.
Where [9] appears, read: read-out: HLM/MLM (t ½ min): MLM.
The mark [10] stands for this setting: with ritonavir (concentration not stated), + Ritonavir, read-out: HLM/MLM (t ½ min) + Ritonavir: MLM.

6 compounds from patent US20250326725A1, “PI4-Kinase Inhibitors and Methods of Using the Same” (The Board of Trustees of the Leland Stanford Junior …, priority 2019, published 2025) can be followed below.

pEC50, pIC50: −log10 of the molar value. Values joined by “and” are separate entries in the source; they are usually repeats but may differ in a detail not shown here. Equal values may be shown once. Read-outs that look alike come from different tables or passages of the source.

T2 sequence (O02810 whole entry): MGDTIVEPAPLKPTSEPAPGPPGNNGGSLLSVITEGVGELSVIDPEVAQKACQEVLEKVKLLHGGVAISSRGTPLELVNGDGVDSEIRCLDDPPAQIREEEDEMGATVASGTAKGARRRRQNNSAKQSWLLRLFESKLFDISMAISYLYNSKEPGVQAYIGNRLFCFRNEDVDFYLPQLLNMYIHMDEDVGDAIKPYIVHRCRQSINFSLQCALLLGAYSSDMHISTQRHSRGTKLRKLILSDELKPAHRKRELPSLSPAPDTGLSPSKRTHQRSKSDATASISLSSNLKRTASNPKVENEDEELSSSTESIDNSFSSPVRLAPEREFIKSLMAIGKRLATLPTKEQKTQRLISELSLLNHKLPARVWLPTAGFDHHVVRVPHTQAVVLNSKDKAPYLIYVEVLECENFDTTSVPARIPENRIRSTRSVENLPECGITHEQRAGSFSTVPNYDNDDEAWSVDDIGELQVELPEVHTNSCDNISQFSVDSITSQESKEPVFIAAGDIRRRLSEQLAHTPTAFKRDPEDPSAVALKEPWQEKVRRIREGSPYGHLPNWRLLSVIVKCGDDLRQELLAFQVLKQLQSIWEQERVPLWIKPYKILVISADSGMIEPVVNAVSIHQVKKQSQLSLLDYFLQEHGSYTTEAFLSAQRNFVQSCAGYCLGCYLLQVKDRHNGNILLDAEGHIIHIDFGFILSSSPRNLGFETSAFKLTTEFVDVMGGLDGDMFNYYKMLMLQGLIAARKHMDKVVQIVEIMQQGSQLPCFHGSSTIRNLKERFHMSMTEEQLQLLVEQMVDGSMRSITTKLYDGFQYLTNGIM
T1 sequence (P42356 whole entry): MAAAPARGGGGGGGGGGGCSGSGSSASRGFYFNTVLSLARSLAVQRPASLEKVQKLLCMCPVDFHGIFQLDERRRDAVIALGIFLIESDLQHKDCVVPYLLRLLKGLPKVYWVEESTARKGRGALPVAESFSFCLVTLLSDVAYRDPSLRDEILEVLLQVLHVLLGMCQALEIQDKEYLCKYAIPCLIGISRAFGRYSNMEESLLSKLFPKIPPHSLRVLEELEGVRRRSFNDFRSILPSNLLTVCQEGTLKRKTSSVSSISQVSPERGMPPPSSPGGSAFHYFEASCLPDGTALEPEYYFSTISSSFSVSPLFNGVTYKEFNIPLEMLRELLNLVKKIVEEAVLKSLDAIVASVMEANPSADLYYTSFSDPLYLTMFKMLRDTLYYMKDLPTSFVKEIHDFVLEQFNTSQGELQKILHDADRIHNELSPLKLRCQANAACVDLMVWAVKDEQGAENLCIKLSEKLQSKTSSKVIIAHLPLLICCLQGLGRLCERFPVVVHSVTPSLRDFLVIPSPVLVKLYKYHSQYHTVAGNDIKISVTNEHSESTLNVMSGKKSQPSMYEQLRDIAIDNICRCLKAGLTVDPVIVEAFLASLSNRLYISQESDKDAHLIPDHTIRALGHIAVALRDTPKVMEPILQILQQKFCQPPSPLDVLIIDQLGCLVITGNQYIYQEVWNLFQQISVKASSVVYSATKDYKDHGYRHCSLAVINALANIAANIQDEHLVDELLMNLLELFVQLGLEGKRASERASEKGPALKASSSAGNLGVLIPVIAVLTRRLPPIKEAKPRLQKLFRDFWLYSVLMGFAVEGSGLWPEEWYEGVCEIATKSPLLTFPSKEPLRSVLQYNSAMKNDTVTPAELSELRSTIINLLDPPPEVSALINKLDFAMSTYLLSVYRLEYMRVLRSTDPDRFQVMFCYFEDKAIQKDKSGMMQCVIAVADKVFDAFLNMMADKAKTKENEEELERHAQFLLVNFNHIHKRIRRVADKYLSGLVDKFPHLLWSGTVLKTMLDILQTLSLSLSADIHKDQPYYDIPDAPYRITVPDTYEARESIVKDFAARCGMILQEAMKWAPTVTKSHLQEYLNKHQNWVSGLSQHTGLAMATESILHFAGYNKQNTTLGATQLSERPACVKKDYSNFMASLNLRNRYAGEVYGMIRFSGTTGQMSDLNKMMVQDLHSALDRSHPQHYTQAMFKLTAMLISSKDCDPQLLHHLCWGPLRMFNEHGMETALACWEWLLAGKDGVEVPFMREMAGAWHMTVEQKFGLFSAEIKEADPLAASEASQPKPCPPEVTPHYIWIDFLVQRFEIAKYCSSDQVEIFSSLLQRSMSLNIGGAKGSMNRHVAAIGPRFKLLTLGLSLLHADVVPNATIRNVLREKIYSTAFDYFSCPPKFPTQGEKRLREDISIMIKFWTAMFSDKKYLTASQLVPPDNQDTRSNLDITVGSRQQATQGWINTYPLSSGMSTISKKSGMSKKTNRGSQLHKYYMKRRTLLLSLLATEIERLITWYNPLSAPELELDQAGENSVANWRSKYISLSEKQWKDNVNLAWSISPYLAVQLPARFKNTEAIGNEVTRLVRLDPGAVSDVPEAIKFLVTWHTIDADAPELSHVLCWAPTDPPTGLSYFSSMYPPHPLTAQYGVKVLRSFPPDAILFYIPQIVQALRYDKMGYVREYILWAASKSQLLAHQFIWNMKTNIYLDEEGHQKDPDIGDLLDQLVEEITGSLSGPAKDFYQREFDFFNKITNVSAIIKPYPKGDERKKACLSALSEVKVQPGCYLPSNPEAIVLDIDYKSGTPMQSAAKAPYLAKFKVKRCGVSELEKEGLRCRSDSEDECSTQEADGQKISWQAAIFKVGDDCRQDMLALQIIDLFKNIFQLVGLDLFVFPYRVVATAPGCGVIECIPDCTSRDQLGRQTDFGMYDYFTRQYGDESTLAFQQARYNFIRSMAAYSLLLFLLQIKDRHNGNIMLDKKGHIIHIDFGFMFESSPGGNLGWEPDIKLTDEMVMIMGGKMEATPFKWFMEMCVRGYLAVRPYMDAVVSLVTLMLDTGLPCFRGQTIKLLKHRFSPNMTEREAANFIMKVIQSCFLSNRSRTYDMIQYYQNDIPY

`COc1ccc(-c2sc(NC(C)(C)C3CCOCC3)nc2C)cc1S(=O)(=O)Nc1c(C)cccc1F` [Compound C]: the figures for the negative-log IC50 (pIC50) against PI4KIIIalpha and on PI4KIIIbeta were less than 5.00 and greater than 7.00, respectively. This compound gave a pEC50 in series [1] of 7.15. In [2], the cytotoxic concentration (CC50) was greater than 100 µM.
As for `COc1ccc(-c2sc(NC(C)(C)C3CCOCC3)nc2C)cc1S(=O)(=O)Nc1cccnc1C` [Compound S-3], the negative-log EC50 (pEC50) in the series on HRV is 9.30; with HCV it was 9.30; in the series with EV71 (Enterovirus A, EV71), 9.30; in the series on EV68 it was 8.89 and 9.00. Also, the Papp in series [3] is 7.42 ×10⁻⁶ cm/s. Besides, the half-maximal cytotoxic concentration (CC50) stood at 86.6 µM in series [4]; 86 µM with cells (EV71 assay); 70.5 µM in series [7]; 70 µM in the series with HeLa S3 cells; 47 µM in the series with cells (EV68 assay); 47.5 µM in [8]. Moreover, the half-life was 0.967 h in [5] (setting [9]), 2.65 h in series [5] (setting [10]) and 0.967 h in [6]. For the same compound, the “HLM/MLM (t ½ min) + Ritonavir: HLM” value in [6] was 159/159 min.
For the compound `COc1ccc(-c2sc(NC3(C4CCOCC4)CC3)nc2C)cc1S(=O)(=O)Nc1ccc(Cl)cc1Cl` [Compound S-14], the pEC50 is 7.85 in the series with HRV; 7.84 with HCV; 8.00 in the series on EV71; 7.98 in the series with EV71 (Enterovirus A, EV71); 4.48 with EV68. Moreover, the CC50 turned out to be 37.2 µM in series [4]; 37 µM in the series with cells (EV71 assay); 36.4 µM in [7]; 36 µM with HeLa S3 cells; 39 µM with cells (EV68 assay); 39.4 µM in series [8].
In the case of `COc1ccc(-c2sc(NC(C)(C)c3ccccc3)nc2C)cc1S(=O)(=O)Nc1c(C)cccc1F` [Compound S-32], the pIC50 was less than 5.00 against PI4KIIIalpha and greater than 7.00 against PI4KIIIbeta. Also, the Papp in series [3] was found to be 0.04 ×10⁻⁶ cm/s. For the same compound, the half-life in series [5] (setting [9]) was 0.367 h; in [5] (setting [10]) it was 2.22 h; in [6], 0.283 h. Further, in [6], the “HLM/MLM (t ½ min) + Ritonavir: HLM” value was found to be 159 min. Moreover, the negative logarithm of the EC50 (pEC50) is 9.70 with HCV; 9.22 and 9.52 in the series on EV68. The same compound registered a CC50 in series [8] of 100 µM.
Take `COc1ccc(-c2sc(NC(C)(C)c3cccnc3)nc2C)cc1S(=O)(=O)Nc1c(C)cccc1F` [Compound S-39]: the pEC50 was 9.70 in the series on HRV; 9.70 in the series with HCV; 9.70 in the series on EV71 (Enterovirus A, EV71); 9.10 in the series with EV68. For the same compound, the Papp in [3] turned out to be 7.6 ×10⁻⁶ cm/s. Besides, the half-maximal cytotoxic concentration (CC50) in series [4] came to 99 µM; in the series on cells (EV71 assay), 99 µM; in series [7] it was 47.7 µM; in the series with HeLa S3 cells it was 47 µM; in the series on cells (EV68 assay) it was 19 µM; in series [8], 19.9 µM. Further, the half-life in [5] (setting [9]) stood at 1.12 h; in [5] (setting [10]) it was 1.38 h; in series [6] it was 1.38 h. Also, in [6], the “HLM/MLM (t ½ min) + Ritonavir: HLM” value turned out to be 159 min.
As to `COc1ccc(-c2sc(NC(C)C3CCOCC3)nc2C)cc1S(=O)(=O)Nc1c(C)cccc1F` (stereo not drawn) [Compound S-76], the negative logarithm of the EC50 (pEC50) is 8.72 in the series with HRV; greater than 9.22 in series [1]; 8.74 with EV71 (Enterovirus A, EV71); 8.30 with EV68. The CC50 came to 36 µM in [4], 27 µM in [2], 9.3 µM in [7] and 9.4 µM in series [8].
